The results in this text go back to PubChem BioAssay (NCI).

The structures appear in SMILES notation.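 Test compounds were applied to cells in 96-well plates for 48 hours at 5 doses. TGI denotes the concentration required for complete inhibition of growth.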 Bounds are passed on as bounds.

Test systems include SK-MEL-5 melanoma; HCT-116 colon; OVCAR-8 ovarian; K-562 leukemia; MALME-3M melanoma; HT29 colon; UACC-62 melanoma; HCC-2998 colon; MCF7 breast.
Experiment in all cases: NCI tumour cell line growth inhibition, 48 h

With `CC1Cc2c(N)nc(N3CCOCC3)nc2NC1=O` (centres undefined), the TGI with SK-MEL-5 melanoma, in the assay with HCT-116 colon, in the assay on OVCAR-8 ovarian, in the assay with K-562 leukemia, with MALME-3M melanoma and with HT29 colon was greater than 100 µM throughout. In the assay on UACC-62 melanoma, this compound had a TGI greater than 100 µM.

In the case of `COc1cc2ccnc3c2c(c1OC)CC1CC(O)C(OC)CC31` (centres undefined), the TGI in the assay on SK-MEL-5 melanoma, in the assay on HCT-116 colon, with OVCAR-8 ovarian, with K-562 leukemia, in the assay with MALME-3M melanoma and in the assay with HCC-2998 colon was greater than 100 µM throughout. Also, the TGI in the assay with HT29 colon and in the assay on UACC-62 melanoma was greater than 100 µM in each case.

As for `C[C@]12CC(C#N)C(=O)C(O)=C1CC[C@@H]1C2CC[C@@]2(C)C1CC[C@@H]2O` (some centres undefined), the TGI in the assay with SK-MEL-5 melanoma, with HCT-116 colon, in the assay on OVCAR-8 ovarian, with K-562 leukemia, with MALME-3M melanoma and in the assay on HCC-2998 colon was greater than 100 µM in each case. For the same compound, the TGI is greater than 100 µM in the assay with HT29 colon and 83.8 µM with UACC-62 melanoma.

For the compound `C[C@@H](NC1CCC[C@@H]1O)c1ccccc1` (some centres undefined), the TGI in the assay on SK-MEL-5 melanoma, with HCT-116 colon, with OVCAR-8 ovarian, in the assay on K-562 leukemia, in the assay on MALME-3M melanoma and in the assay on HCC-2998 colon was greater than 100 µM in each case. Moreover, the TGI with HT29 colon and with UACC-62 melanoma was greater than 100 µM each time.

On to `O=C(O)CCSC(=O)Nc1cccc([N+](=O)[O-])c1`, for which the TGI with HCT-116 colon, in the assay with OVCAR-8 ovarian, in the assay with K-562 leukemia, with HCC-2998 colon and in the assay with HT29 colon was greater than 100 µM throughout.

Take `NC1=NC(c2ccccc2)CC(c2cc(Cl)cc(Br)c2O)=N1` (centres undefined): the TGI turned out to be 25 µM in the assay on SK-MEL-5 melanoma; 21.4 µM with MCF7 breast; 25.8 µM with HCT-116 colon; 38.5 µM with OVCAR-8 ovarian; 17.4 µM with K-562 leukemia; 15.9 µM with MALME-3M melanoma. The TGI with HCC-2998 colon was 26.4 µM; in the assay on HT29 colon, 27 µM; in the assay on UACC-62 melanoma, 24.6 µM.

As for `Cc1[nH]c2ccccc2c1C1CC(=O)NC1=O` (centres undefined), the TGI in the assay with SK-MEL-5 melanoma, in the assay with HCT-116 colon, in the assay with OVCAR-8 ovarian, with K-562 leukemia, in the assay on MALME-3M melanoma and with HCC-2998 colon was greater than 100 µM each time. Besides, in the assay with UACC-62 melanoma, the TGI is greater than 100 µM.

With `O=C(c1cc2c(C(F)(F)F)onc2c2ccccc12)C(F)(F)F`, the TGI in the assay on SK-MEL-5 melanoma is 15.5 µM; in the assay with HCT-116 colon, 1.03 µM; in the assay with OVCAR-8 ovarian it was 7.66 µM; in the assay on K-562 leukemia it was greater than 40 µM; with HCC-2998 colon, 60.4 µM; with HT29 colon, greater than 61.7 µM. In the assay with UACC-62 melanoma, this compound displayed a TGI of 17 µM.

With `N#CC(C(=O)CCC(=O)Nc1ccc(Cl)cc1)c1ccccc1Cl` (centres undefined), the TGI in the assay with SK-MEL-5 melanoma, with HCT-116 colon, in the assay on OVCAR-8 ovarian, with K-562 leukemia, in the assay on MALME-3M melanoma and in the assay with UACC-62 melanoma was greater than 100 µM each time.

For `CC(C)Cc1ccc(C(C)/C=C2\CCC(CN3CCCC3)C2=O)cc1` (centres undefined), the TGI was 28 µM with SK-MEL-5 melanoma; 15.5 µM with HCT-116 colon; 18 µM in the assay with OVCAR-8 ovarian; greater than 100 µM in the assay on K-562 leukemia; 36.1 µM in the assay on MALME-3M melanoma; 19.3 µM in the assay with HCC-2998 colon. The TGI in the assay with HT29 colon came out at 23.2 µM; in the assay with UACC-62 melanoma it was 31.2 µM.

On to `O=C(COc1ccc(Cl)cc1)N1N=C(c2ccc([N+](=O)[O-])o2)CC1(O)c1ccccc1` (centres undefined), for which the TGI in the assay on HCT-116 colon stood at 17.9 µM; in the assay with OVCAR-8 ovarian, 23.6 µM; in the assay on K-562 leukemia it was 29.7 µM; with MALME-3M melanoma it was 23.4 µM; with HCC-2998 colon, 16.1 µM; in the assay on HT29 colon, 16.3 µM. The same compound returned a TGI in the assay on UACC-62 melanoma of 19.7 µM.

`Cc1ccc(NC(=O)CC/C(CC(=O)c2ccc(Cl)cc2)=N\NC(=O)C(=O)NN)cc1C`: the TGI in the assay on SK-MEL-5 melanoma, with HCT-116 colon, in the assay on OVCAR-8 ovarian, with K-562 leukemia, in the assay with MALME-3M melanoma and with HCC-2998 colon was greater than 100 µM in each case. For the same compound, the TGI in the assay with HT29 colon and with UACC-62 melanoma was greater than 100 µM each time.

Consider `O=C(O)CN(c1ccccc1)S(=O)(=O)c1ccc(Cl)cc1`, for which the TGI with OVCAR-8 ovarian, with K-562 leukemia, with MALME-3M melanoma, in the assay with HT29 colon and with UACC-62 melanoma was greater than 100 µM each time.

Consider `C[Si](C)(C)/C=C\CCCN1C(=O)CCC1=O`, for which the TGI with SK-MEL-5 melanoma, with HCT-116 colon, with OVCAR-8 ovarian, in the assay with K-562 leukemia, in the assay on MALME-3M melanoma and in the assay on HCC-2998 colon was greater than 100 µM throughout. For the same compound, the TGI with HT29 colon and in the assay with UACC-62 melanoma was greater than 100 µM each time.

With `CC(C)c1cccc(C(C)C)c1N=C(N)C#N`, the TGI in the assay on SK-MEL-5 melanoma is greater than 100 µM; in the assay with HCT-116 colon, greater than 58.6 µM; in the assay with OVCAR-8 ovarian it was greater than 100 µM; with K-562 leukemia, greater than 61.7 µM; in the assay on MALME-3M melanoma, greater than 100 µM; with HCC-2998 colon, greater than 100 µM. For the same compound, the TGI in the assay with HT29 colon is greater than 100 µM; with UACC-62 melanoma it was 99.1 µM.

Consider `CC(C(=O)c1ccccc1)C1(O)C(=O)Nc2ccccc21` (centres undefined), for which the TGI in the assay with SK-MEL-5 melanoma, in the assay on HCT-116 colon, in the assay with K-562 leukemia, in the assay with MALME-3M melanoma, in the assay with HCC-2998 colon and in the assay with HT29 colon was greater than 100 µM in each case. In addition, in the assay with UACC-62 melanoma, the TGI was greater than 100 µM.

`CCC(O)(c1ccc(OC)cc1)C(c1ccc(OCc2ccccc2)cc1)c1ccc(OCc2ccccc2)cc1` (centres undefined): the TGI in the assay on SK-MEL-5 melanoma, in the assay with HCT-116 colon, in the assay with OVCAR-8 ovarian, in the assay with K-562 leukemia, in the assay on MALME-3M melanoma and with HCC-2998 colon was greater than 100 µM each time. Moreover, the TGI in the assay on HT29 colon and in the assay with UACC-62 melanoma was greater than 100 µM throughout.
